# Columns and labels:
# DDR2 = biological target: T1, DDR2 (Homo sapiens, UniProt Q16832); assay: LanthaScreen Europium Kinase Binding assay, DDR2; conditions: 5 nM DDR2, 10 nM Kinase Tracer 178, 1 h at rt; Ki from IC50 by Cheng-Prusoff; read-out: Ki DDR2
# T1 construct: purchased Life Technologies
# T1 sequence (Q16832 22-855): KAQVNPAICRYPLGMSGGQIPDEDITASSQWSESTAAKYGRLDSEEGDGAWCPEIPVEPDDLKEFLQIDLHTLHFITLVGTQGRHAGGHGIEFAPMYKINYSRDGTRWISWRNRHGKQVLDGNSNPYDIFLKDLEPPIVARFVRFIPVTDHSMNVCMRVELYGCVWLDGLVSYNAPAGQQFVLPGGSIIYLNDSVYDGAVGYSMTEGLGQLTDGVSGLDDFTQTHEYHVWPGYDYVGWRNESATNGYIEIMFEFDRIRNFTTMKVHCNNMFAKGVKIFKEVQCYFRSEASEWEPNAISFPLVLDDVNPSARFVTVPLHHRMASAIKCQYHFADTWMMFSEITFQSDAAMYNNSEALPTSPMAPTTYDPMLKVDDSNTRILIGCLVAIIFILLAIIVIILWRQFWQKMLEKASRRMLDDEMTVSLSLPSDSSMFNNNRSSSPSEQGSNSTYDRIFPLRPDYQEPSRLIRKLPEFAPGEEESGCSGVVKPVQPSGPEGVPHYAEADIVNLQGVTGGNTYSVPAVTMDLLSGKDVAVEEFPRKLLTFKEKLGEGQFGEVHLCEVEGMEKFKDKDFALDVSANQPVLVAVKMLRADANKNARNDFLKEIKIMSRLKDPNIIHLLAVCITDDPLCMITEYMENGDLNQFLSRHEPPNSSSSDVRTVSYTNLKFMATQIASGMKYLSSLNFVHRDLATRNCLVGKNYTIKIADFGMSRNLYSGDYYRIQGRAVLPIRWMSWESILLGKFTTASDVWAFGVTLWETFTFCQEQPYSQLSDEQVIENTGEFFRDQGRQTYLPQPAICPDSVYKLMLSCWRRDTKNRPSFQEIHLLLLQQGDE
# Protocol: (§1) DDR1 and DDR2 binding assays were performed using Life Technologies LanthaScreen™ Europium Kinase Binding assay. […] IC50 values were determined in GraphPad Prism 7.0 software, using 4 parameter model: log (inhibitor) vs. response. IC50 values were converted in Ki using the Cheng-Prusoff equation (Ki-IC50/(1+ [Tracer]/Kd).
# DDR1 = biological target: T2, DDR1 (Homo sapiens, UniProt Q08345); assay: LanthaScreen Europium Kinase Binding assay, DDR1; conditions: 5 nM DDR1, 20 nM Kinase Tracer 178, 1 h at rt; Ki from IC50 by Cheng-Prusoff; read-out: Ki DDR1
# T2 construct: purchased Carna Biosciences
# Protocol: as §1
# T2 sequence (Q08345 19-913): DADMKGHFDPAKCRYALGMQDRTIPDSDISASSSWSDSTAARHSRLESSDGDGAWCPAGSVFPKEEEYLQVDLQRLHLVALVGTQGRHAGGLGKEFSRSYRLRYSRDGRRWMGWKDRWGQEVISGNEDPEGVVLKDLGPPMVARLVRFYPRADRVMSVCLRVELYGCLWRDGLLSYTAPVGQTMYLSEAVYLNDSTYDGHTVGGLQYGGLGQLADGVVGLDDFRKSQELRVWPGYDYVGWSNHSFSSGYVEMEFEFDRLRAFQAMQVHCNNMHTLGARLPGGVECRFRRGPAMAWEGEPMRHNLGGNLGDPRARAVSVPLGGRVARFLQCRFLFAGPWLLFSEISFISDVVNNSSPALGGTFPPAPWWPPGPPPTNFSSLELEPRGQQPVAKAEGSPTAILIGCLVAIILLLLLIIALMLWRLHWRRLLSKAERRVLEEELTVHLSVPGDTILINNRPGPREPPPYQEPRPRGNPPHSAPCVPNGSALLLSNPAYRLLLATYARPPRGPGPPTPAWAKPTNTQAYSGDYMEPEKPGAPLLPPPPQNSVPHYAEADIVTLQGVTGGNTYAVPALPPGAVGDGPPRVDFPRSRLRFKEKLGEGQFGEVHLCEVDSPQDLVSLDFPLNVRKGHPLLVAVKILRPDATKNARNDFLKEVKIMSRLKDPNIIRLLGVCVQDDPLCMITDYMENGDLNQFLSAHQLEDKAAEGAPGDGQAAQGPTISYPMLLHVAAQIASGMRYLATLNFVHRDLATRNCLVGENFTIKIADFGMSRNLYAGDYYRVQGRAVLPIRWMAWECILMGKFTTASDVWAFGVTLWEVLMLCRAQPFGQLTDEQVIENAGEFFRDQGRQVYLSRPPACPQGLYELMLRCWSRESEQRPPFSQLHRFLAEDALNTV
SMILES,Ki (DDR2),Ki (DDR1)
"COc1c(CO)cc(OC(F)(F)F)cc1NC(=O)NC1CC2(C1)CN(C(=O)c1cnn3ccn(C)c13)C2 [Example 78, 1-(3-(hydroxymethyl)-2-methoxy-5-(trifluoromethoxy)phenyl)-3-(2-(1-methyl-1H-imidazo[1,2-b]pyrazole-7-carbonyl)-2-azaspiro[3.3]heptan-6-yl)urea]",25 to 100 nM,< 5 nM
"O=C(Nc1cc(C(F)(F)F)ccc1F)NC1CC2(C1)CN(C(=O)c1cnn3ccncc13)C2 [Example 17, 1-(2-fluoro-5-(trifluoromethyl)phenyl)-3-(2-(pyrazolo[1,5-a]pyrazine-3-carbonyl)-2-azaspiro[3.3]heptan-6-yl)urea]",5 to 25 nM,< 5 nM
"O=C(Nc1cc(CO)cc(C(F)(F)F)c1)NC1CC2(C1)CN(C(=O)c1cnn3ccsc13)C2 [Example 41, 1-(3-(hydroxymethyl)-5-(trifluoromethyl)phenyl)-3-(2-(pyrazolo[5,1-b]thiazole-7-carbonyl)-2-azaspiro[3.3]heptan-6-yl)urea]",5 to 25 nM,< 5 nM
"CN(C(=O)Nc1cccc(CC(F)(F)F)c1)C1CC2(C1)CN(C(=O)c1cnn3ccn(C)c13)C2 [Example 50, 1-methyl-1-(2-(1-methyl-1H-imidazo[1,2-b]pyrazole-7-carbonyl)-2-azaspiro[3.3]heptan-6-yl)-3-(3-(2,2,2-trifluoroethyl)phenyl)urea]",5 to 25 nM,< 5 nM
"COc1cc(C(F)(F)F)cc(NC(=O)N(C)C2CC3(C2)CN(C(=O)c2cnn4ccn(C)c24)C3)n1 [Example 256, 3-(6-methoxy-4-(trifluoromethyl)pyridin-2-yl)-1-methyl-1-(2-(1-methyl-1H-imidazo[1,2-b]pyrazole-7-carbonyl)-2-azaspiro[3.3]heptan-6-yl)urea]",5 to 25 nM,< 5 nM
"CN(C(=O)Nc1cc(C(F)(F)F)ccn1)C1CC2(C1)CN(C(=O)c1ncnc3ccsc13)C2 [Example 263, 1-methyl-1-(2-(thieno[3,2-d]pyrimidine-4-carbonyl)-2-azaspiro[3.3]heptan-6-yl)-3-(4-(trifluoromethyl)pyridin-2-yl)urea]",5 to 25 nM,< 5 nM
"COc1ncc(C(F)(F)F)cc1NC(=O)NC1CC2(C1)CN(C(=O)c1cnn3ccn(C)c13)C2 [Example 107, 1-(2-methoxy-5-(trifluoromethyl)pyridin-3-yl)-3-(2-(1-methyl-1H-imidazo[1,2-b]pyrazole-7-carbonyl)-2-azaspiro[3.3]heptan-6-yl)urea]",5 to 25 nM,< 5 nM
"Cc1ncc(NC(=O)NC2CC3(C2)CN(C(=O)c2cnn4ccn(C)c24)C3)cc1C(F)(F)F [Example 181, 1-(2-(1-methyl-1H-imidazo[1,2-b]pyrazole-7-carbonyl)-2-azaspiro[3.3]heptan-6-yl)-3-(6-methyl-5-(trifluoromethyl)pyridin-3-yl)urea]",5 to 25 nM,< 5 nM
"COc1ccc(OC(F)(F)F)cc1NC(=O)NC1CC2(C1)CN(C(=O)c1cnn3ccccc13)C2 [Example 68, 1-(2-methoxy-5-(trifluoromethoxy)phenyl)-3-(2-(pyrazolo[1,5-a]pyridine-3-carbonyl)-2-azaspiro[3.3]heptan-6-yl)urea]",5 to 25 nM,< 5 nM
"Cc1ccc(C(F)(F)F)cc1NC(=O)OC1CC2(C1)CN(C(=O)c1cnn3ccn(C)c13)C2 [Example 270, 2-(1-methyl-1H-imidazo[1,2-b]pyrazole-7-carbonyl)-2-azaspiro[3.3]heptan-6-yl(2-methyl-5-(trifluoromethyl)phenyl)carbamate]",< 5 nM,< 5 nM
"CN(C(=O)Nc1cncc(OC(F)(F)F)c1)C1CC2(C1)CN(C(=O)c1cnn3ccsc13)C2 [Example 179, 1-methyl-1-(2-(pyrazolo[5,1-b]thiazole-7-carbonyl)-2-azaspiro[3.3]heptan-6-yl)-3-(5-(trifluoromethoxy)pyridin-3-yl)urea]",5 to 25 nM,< 5 nM
"O=C(Nc1cccc(C(F)(F)F)c1)NC1CC2(C1)CN(Cc1cnc3[nH]ncc3c1)C2 [Example 12, 1-(2-((1H-pyrazolo[3,4-b]pyridine-5-yl)methyl)-2-azaspiro[3.3]heptan-6-yl)-3-(3-(trifluoromethyl)phenyl)urea]",5 to 25 nM,5 to 25 nM
"Cn1ccn2ncc(C(=O)N3CC4(CC(CC(=O)Nc5cncc(C(F)(F)F)c5)C4)C3)c12 [Example 274, 2-(2-(1-methyl-1H-imidazo[1,2-b]pyrazole-7-carbonyl)-2-azaspiro[3.3]heptan-6-yl)-N-(5-(trifluoromethyl)pyridin-3-yl)acetamide]",5 to 25 nM,< 5 nM
"CN(C(=O)Nc1cncc(C2CC2)c1)C1CC2(C1)CN(C(=O)c1cnn3ccn(C)c13)C2 [Example 157, 3-(5-cyclopropylpyridin-3-yl)-1-methyl-1-(2-(1-methyl-1H-imidazo[1,2-b]pyrazole-7-carbonyl)-2-azaspiro[3.3]heptan-6-yl)urea]",5 to 25 nM,< 5 nM
"COc1ccc(S(F)(F)(F)(F)F)cc1NC(=O)NC1CC2(C1)CN(C(=O)c1cnn3ccn(C)c13)C2 [Example 109, 1-(2-methoxy-5-(pentafluoro-16-sulfaneyl)phenyl)-3-(2-(1-methyl-1H-imidazo[1,2-b]pyrazole-7-carbonyl)-2-azaspiro[3.3]heptan-6-yl)urea]",< 5 nM,< 5 nM
"Cc1ccc(OC(F)(F)F)cc1NC(=O)OC1CC2(C1)CN(C(=O)c1cnn3ccn(C)c13)C2 [Example 295, 2-(1-methyl-1H-imidazo[1,2-b]pyrazole-7-carbonyl)-2-azaspiro[3.3]heptan-6-yl(2-methyl-5-(trifluoromethoxy)phenyl)carba-mate]",< 5 nM,< 5 nM
"Cc1cnc(NC(=O)N(C)C2CC3(C2)CN(C(=O)c2cnn4ccn(C)c24)C3)cc1C(F)(F)F [Example 303, 1-methyl-1-(2-(1-methyl-1H-imidazo[1,2-b]pyrazole-7-carbonyl)-2-azaspiro[3.3]heptan-6-yl)-3-(5-methyl-4-(trifluoromethyl)pyridin-2-yl)urea]",5 to 25 nM,< 5 nM
"O=C(Nc1cc(F)cc(C(F)(F)F)c1)NC1CC2(C1)CN(C(=O)c1cnn3ccncc13)C2 [Example 16, 1-(3-fluoro-5-(trifluoromethyl)phenyl)-3-(2-(pyrazolo[1,5-a]pyrazine-3-carbonyl)-2-azaspiro[3.3]heptan-6-yl)urea]",5 to 25 nM,< 5 nM
"CN(C(=O)Nc1cc(C(F)(F)F)cnn1)C1CC2(C1)CN(C(=O)c1cnn3ccsc13)C2 [Example 228, 1-methyl-1-(2-(pyrazolo[5,1-b]thiazole-7-carbonyl)-2-azaspiro[3.3]heptan-6-yl)-3-(5-(trifluoromethyl)pyridazin-3-yl)urea]",25 to 100 nM,< 5 nM
"COc1ccc(OC(F)(F)F)cc1NC(=O)N(C)C1CC2(C1)CN(C(=O)c1cnn3ccn(C)c13)C2 [Example 52, 3-(2-methoxy-5-(trifluoromethoxy)phenyl)-1-methyl-1-(2-(1-methyl-1H-imidazo[1,2-b]pyrazole-7-carbonyl)-2-azaspiro[3.3]heptan-6-yl)urea]",5 to 25 nM,< 5 nM
"CN(C(=O)Nc1cncc(OC(F)(F)F)c1)C1CC2(C1)CN(C(=O)c1cnn3ccn(C)c13)C2 [Example 172, 1-methyl-1-(2-(1-methyl-1H-imidazo[1,2-b]pyrazole-7-carbonyl)-2-azaspiro[3.3]heptan-6-yl)-3-(5-(trifluoromethoxy)pyridin-3-yl)urea]",5 to 25 nM,< 5 nM

# — patent US20260285855A1, “HETEROARYL DERIVATIVES AS DDRS INHIBITORS” (CHIESI FARMACEUTICI S.P.A., priority 2023, published 2026)
